Reference: PubChem BioAssay AID330 (DTP/NCI, 2004)
“And” between values parts separate entries of the source, which are not always exact repeats. Equal entries are not always repeated. Inconclusive results and toxic doses are left out.

Test system: P388 leukemia ip, CD2F1 mice, survival T/C
Assay: NCI In Vivo Anticancer Drug Screen. Data for tumor model P388 Leukemia (intraperitoneal) in CD2F1 (CDF1) mice
Details: endpoint: median survival time, higher = longer survival
Outline: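 Mice carrying the transplanted tumor received test compound or vehicle. Survival was recorded in each group, and the value is the treated-group measurement divided by that of the vehicle-treated control group.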

[1] = dose: 50.0 mg/kg/injection, schedule: Q01DX009 (ip), vehicle: saline with Tween-80
[2] = dose: 100.0 mg/kg/injection, schedule: Q01DX009 (ip), vehicle: saline with Tween-80
[3] = dose: 200.0 mg/kg/injection, schedule: Q01DX009 (ip), vehicle: saline with Tween-80
[4] = dose: 50.0 mg/kg/injection, schedule: Q01DX005 (ip), vehicle: saline with Tween-80
[5] = dose: 100.0 mg/kg/injection, schedule: Q01DX005 (ip), vehicle: saline with Tween-80
[6] = dose: 200.0 mg/kg/injection, schedule: Q01DX005 (ip), vehicle: saline with Tween-80
[7] = dose: 60.0 mg/kg/injection, schedule: Q01DX005 (ip), vehicle: saline with Tween-80
[8] = dose: 120.0 mg/kg/injection, schedule: Q01DX005 (ip), vehicle: saline with Tween-80
[9] = dose: 240.0 mg/kg/injection, schedule: Q01DX005 (ip), vehicle: saline with Tween-80
[10] = dose: 100.0 mg/kg/injection, schedule: Q01DX001 (ip), vehicle: saline with Tween-80
[11] = dose: 200.0 mg/kg/injection, schedule: Q01DX001 (ip), vehicle: saline with Tween-80
[12] = dose: 400.0 mg/kg/injection, schedule: Q01DX001 (ip), vehicle: saline with Tween-80
[13] = dose: 50.0 mg/kg/injection, schedule: Q01DX005 (ip), vehicle: saline
[14] = dose: 100.0 mg/kg/injection, schedule: Q01DX005 (ip), vehicle: saline
[15] = dose: 50.0 mg/kg/injection, schedule: Q01DX009 (ip), vehicle: saline
[16] = dose: 100.0 mg/kg/injection, schedule: Q01DX009 (ip), vehicle: saline
[17] = dose: 200.0 mg/kg/injection, schedule: Q01DX009 (ip), vehicle: saline

With `Clc1ccc(CSCc2c(CSCc3ccc(Cl)cc3)c(CSCc3ccc(Cl)cc3)c(CSCc3ccc(Cl)cc3)c(CSCc3ccc(Cl)cc3)c2CSCc2ccc(Cl)cc2)cc1` the T/C [1] was 102 % of control, the T/C [2] was 102 % of control and the T/C [3] was 99 % of control.

With `OC1COC(c2nn(-c3ccccc3)c3nc4ccccc4nc23)C1O` (stereo not given) the T/C [4] was 87 % of control, the T/C [5] was 87 % of control and the T/C [6] was 87 % of control.

`Cc1ccc(S(=O)(=O)ON=C2CC(c3ccccc3)N(C)C(c3ccccc3)C2)cc1` (stereo not given) was tested, and the T/C (dose: 50.0 mg/kg/injection, schedule: Q01DX005 (ip), vehicle: Klucel (hydroxypropylcellulose) (HPC)) was 116 % of control and 101 % of control, the T/C (dose: 100.0 mg/kg/injection, schedule: Q01DX005 (ip), vehicle: Klucel (hydroxypropylcellulose) (HPC)) was 107 % of control and 104 % of control and the T/C (dose: 200.0 mg/kg/injection, schedule: Q01DX005 (ip), vehicle: Klucel (hydroxypropylcellulose) (HPC)) was 100 % of control.

In the case of `COc1ccc2nc3ccccc3c(NCCCCCCCCNc3c4ccccc4nc4ccc(OC)cc34)c2c1`, the T/C (dose: 0.63 mg/kg/injection, schedule: Q01DX009 (ip), vehicle: other) is reported as 113 % of control, the T/C (dose: 1.25 mg/kg/injection, schedule: Q01DX009 (ip), vehicle: other) is reported as 109 % of control and the T/C (dose: 2.5 mg/kg/injection, schedule: Q01DX009 (ip), vehicle: other) is reported as 104 % of control. For the same molecule, the T/C (dose: 3.75 mg/kg/injection, schedule: Q01DX009 (ip), vehicle: other) was 109 % of control, the T/C (dose: 5.0 mg/kg/injection, schedule: Q01DX009 (ip), vehicle: other) was 113 % of control and the T/C (dose: 7.5 mg/kg/injection, schedule: Q01DX009 (ip), vehicle: other) was 120 % of control.

In the case of `COc1ccc(/C=N/NC(=O)c2ccncc2)cc1F`, the T/C (dose: 15.0 mg/kg/injection, schedule: Q01DX005 (ip), vehicle: saline with Tween-80) is reported as 100 % of control, the T/C (dose: 30.0 mg/kg/injection, schedule: Q01DX005 (ip), vehicle: saline with Tween-80) is reported as 99 % of control and the T/C [7] is reported as 101 % of control and 88 % of control. The T/C [8] was 88 % of control and the T/C [9] was 95 % of control.

In the case of `CCCCN1C(=O)C2C3C=CC(C2C1=O)C1C2C(=O)N(CCCC)C(=O)C2C31` (stereo not given), the T/C [10] is reported as 93 % of control, the T/C [11] is reported as 93 % of control and the T/C [12] is reported as 90 % of control.

In the case of `Cc1c(N)nc(C(CC(N)=O)NCC(N)C(N)=O)nc1C(=O)NC(C(=O)NC(C)C(O)CC(=O)NC(C(=O)NC(OC1OC(C)C(N)C(O)C1O)C(O)c1nc(-c2nc(C(=O)NCCCC(N)CC(=O)NCCCNCCCCN)cs2)cs1)C(C)O)C(OC1OC(CO)C(O)C(O)C1OC1OC(CO)C(O)C(OC(N)=O)C1O)c1cnc[nH]1` (stereo not given), the T/C (dose: 0.5 mg/kg/injection, schedule: Q01DX009 (ip), vehicle: water) is reported as 106 % of control, the T/C (dose: 0.8 mg/kg/injection, schedule: Q01DX009 (ip), vehicle: water) is reported as 113 % of control and 119 % of control and the T/C (dose: 1.0 mg/kg/injection, schedule: Q01DX009 (ip), vehicle: water) is reported as 113 % of control. The T/C (dose: 1.3 mg/kg/injection, schedule: Q01DX009 (ip), vehicle: water) was 113 % of control and 97 % of control, the T/C (dose: 2.0 mg/kg/injection, schedule: Q01DX009 (ip), vehicle: water) was 113 % of control and the T/C (dose: 2.2 mg/kg/injection, schedule: Q01DX009 (ip), vehicle: water) was 111 % of control and 87 % of control. For the same molecule, the T/C (dose: 3.6 mg/kg/injection, schedule: Q01DX009 (ip), vehicle: water) was 92 % of control.

For `COc1cc2c3cc1Oc1c(OC)c(OC)cc4c1[C@@H](Cc1ccc(OC)c(c1OC)Oc1ccc(cc1)C[C@@H]3N(C)CC2)N(C)CC4`, the T/C (dose: 3.63 mg/kg/injection, schedule: Q01DX005 (ip), vehicle: Klucel (hydroxypropylcellulose) (HPC)) was 103 % of control, the T/C (dose: 7.25 mg/kg/injection, schedule: Q01DX005 (ip), vehicle: Klucel (hydroxypropylcellulose) (HPC)) was 99 % of control and the T/C (dose: 14.5 mg/kg/injection, schedule: Q01DX005 (ip), vehicle: Klucel (hydroxypropylcellulose) (HPC)) was 102 % of control. For the same molecule, the T/C (dose: 29.0 mg/kg/injection, schedule: Q01DX005 (ip), vehicle: Klucel (hydroxypropylcellulose) (HPC)) was 93 % of control and the T/C (dose: 58.0 mg/kg/injection, schedule: Q01DX005 (ip), vehicle: Klucel (hydroxypropylcellulose) (HPC)) was 109 % of control.

`CS(=O)(=O)N1CCCN(S(C)(=O)=O)COC1` was tested, and the T/C [7] was 99 % of control, the T/C [8] was 101 % of control and the T/C [9] was 101 % of control.

`CCOC(=O)CON1C(=O)CCC1=O` was tested, and the T/C (dose: 25.0 mg/kg/injection, schedule: Q01DX005 (ip), vehicle: saline) was 102 % of control, the T/C [13] was 102 % of control and the T/C [14] was 100 % of control. The T/C (dose: 200.0 mg/kg/injection, schedule: Q01DX005 (ip), vehicle: saline) was 105 % of control.

`CCN(CC)CCCC(C)Nc1cc(OC)c2nc(C)cc(Cl)c2c1OC` (stereo not given) was tested, and the T/C [1] was 87 % of control, the T/C [2] was 87 % of control and the T/C [3] was 95 % of control.

For `CCOC(=O)CCCCSCCCCC(=O)OCC`, the T/C [10] was 100 % of control, the T/C [11] was 100 % of control and the T/C [12] was 100 % of control.

For `O=C(N/N=C/c1c(O)ccc2ccccc12)C(=O)N/N=C/c1c(O)ccc2ccccc12`, the T/C (dose: 12.5 mg/kg/injection, schedule: Q01DX005 (ip), vehicle: saline with Tween-80) was 97 % of control, the T/C (dose: 25.0 mg/kg/injection, schedule: Q01DX005 (ip), vehicle: saline with Tween-80) was 94 % of control and the T/C [4] was 121 % of control. For the same molecule, the T/C [5] was 186 % of control.

`CC(=O)NC(=S)Nc1cccs1` was tested, and the T/C (dose: 12.5 mg/kg/injection, schedule: Q01DX009 (ip), vehicle: saline with Tween-80) was 99 % of control, the T/C (dose: 25.0 mg/kg/injection, schedule: Q01DX009 (ip), vehicle: saline with Tween-80) was 103 % of control and the T/C [1] was 95 % of control.

With `NNC(=O)c1ccc(NC(=O)CSc2nc3ccccc3s2)cc1` the T/C (dose: 12.5 mg/kg/injection, schedule: Q01DX009 (ip), vehicle: Klucel (hydroxypropylcellulose) (HPC)) was 99 % of control, the T/C (dose: 25.0 mg/kg/injection, schedule: Q01DX009 (ip), vehicle: Klucel (hydroxypropylcellulose) (HPC)) was 102 % of control and the T/C (dose: 50.0 mg/kg/injection, schedule: Q01DX009 (ip), vehicle: Klucel (hydroxypropylcellulose) (HPC)) was 101 % of control.

With `CN=c1ccc2cc3ccc(NC)cc3oc-2c1` the T/C [13] was 92 % of control and the T/C [14] was 89 % of control.

In the case of `O=c1/c(=C/c2ccc(/C=c3\sc4nc5ccccc5n4c3=O)cc2)sc2nc3ccccc3n12`, the T/C [4] is reported as 92 % of control, the T/C [5] is reported as 90 % of control and the T/C [6] is reported as 95 % of control.

For `C/C(=C/c1cc(Br)c2c(c1)OCO2)[N+](=O)[O-]`, the T/C [10] was 110 % of control, the T/C [11] was 100 % of control and the T/C [12] was 99 % of control.

`N#CNC(=O)c1cccnc1` was tested, and the T/C [15] was 99 % of control, the T/C [16] was 94 % of control and the T/C [17] was 99 % of control.

In the case of `CC1CN(C(=O)Nc2c(C(C)C)cccc2C(C)C)CC(C)O1` (stereo not given), the T/C [1] is reported as 96 % of control and the T/C [2] is reported as 90 % of control.

In the case of `Nc1cnc2nc(N)[nH]c(=O)c2c1`, the T/C (dose: 100.0 mg/kg/injection, schedule: Q01DX009 (ip), vehicle: saline sonified) is reported as 120 % of control, the T/C (dose: 200.0 mg/kg/injection, schedule: Q01DX009 (ip), vehicle: saline sonified) is reported as 110 % of control and the T/C (dose: 400.0 mg/kg/injection, schedule: Q01DX009 (ip), vehicle: saline sonified) is reported as 105 % of control.

In the case of `Oc1ccccc1O`, the T/C (dose: 3.12 mg/kg/injection, schedule: Q01DX009 (ip), vehicle: saline) is reported as 112 % of control, the T/C (dose: 6.25 mg/kg/injection, schedule: Q01DX009 (ip), vehicle: saline) is reported as 104 % of control and the T/C (dose: 12.5 mg/kg/injection, schedule: Q01DX009 (ip), vehicle: saline) is reported as 105 % of control. The T/C (dose: 25.0 mg/kg/injection, schedule: Q01DX009 (ip), vehicle: saline) was 105 % of control and the T/C [15] was 105 % of control and 106 % of control and 107 % of control.

With `O=CNNc1nn2cnnc2c2ccccc12` the T/C [15] was 97 % of control, the T/C [16] was 94 % of control and the T/C [17] was 102 % of control.

`CCCn1c(=O)n(CC)c(=O)c2[nH]c(Cl)nc21` was tested, and the T/C (dose: 16.0 mg/kg/injection, schedule: Q01DX009 (ip), vehicle: Klucel (hydroxypropylcellulose) (HPC)) was 100 % of control and 105 % of control, the T/C (dose: 32.0 mg/kg/injection, schedule: Q01DX009 (ip), vehicle: Klucel (hydroxypropylcellulose) (HPC)) was 102 % of control and 105 % of control and the T/C (dose: 64.0 mg/kg/injection, schedule: Q01DX009 (ip), vehicle: Klucel (hydroxypropylcellulose) (HPC)) was 108 % of control and 112 % of control.
